Experimental data published in patent US11174270B2, “Crystal form of 3,4-dihydrothieno[3,2-d]pyrimidine compound and preparation method thereof” (PHAENO THERAPEUTICS CO., LTD., priority 2018, dated 2021).

How the values were obtained:
[1] = Plasma protein binding rate, equilibrium dialysis, human plasma; assay type: in vitro ADME; conditions: equilibrium dialysis 37° C. 4 hours, read-out: Plasma Protein Binding PPB bound(%) (converted)
Method: Determination of the Plasma Protein Binding Rate of the Compound
The protein-binding rates of the test compound in the plasma of CD-1 mice, SD rats and human were evaluated by the equilibrium dialysis method. Compound 1 was diluted into the plasma of the above three species respectively to prepare samples with a final concentration of 2 μM. The samples were then added to a 96-well equilibrium dialysis device, and dialyzed against phosphate buffer solution at 37° C. for 4 hours. Warfarin was used as a control compound in the assay. The concentrations of the test compound and warfarin in the plasma and buffer were determined by LC-MS/MS method.

[2] = test system: human cytomegalovirus (HCMV); experiment: Fluorescence decay assay against human cytomegalovirus; assay type: cell-based; conditions: Human betaherpesvirus 5, 240 h; US3-6-EGFP-HCMV-AD169 in MRCS cells, 10 days of culture, GFP fluorescence intensity
Method: Fluorescence Decay Assay Against Human Cytomegalovirus
The antiviral activity of the compound against human cytomegalovirus (HCMV) was evaluated by determining the median effective concentration (EC50) value of the compound. The HCMV used in this assay was inserted with enhanced green fluorescent protein (EGFP) as a reporter gene by gene recombination, and thus the replication of the virus in cells can be reflected by the expression level of GFP. The inhibitory activity of the compound on the expression of GFP in HCMV was evaluated by determining the fluorescence intensity in the wells of different concentrations of the compound using a high-content cell analysis platform Acumen eX3.
Fluorescence Decay Assay Against HCMV
MRCS cells were inoculated into a black 96-well cell culture plate at a density of 20,000 cells per well, and then incubated overnight in a 37° C., 5% CO2 incubator. US3-6-EGFP-HCMV-AD169 viruses were added to the cell culture wells at a certain MOI (0.003 to 0.1), and incubated in a 37° C., 5% CO2 incubator for 3 hours. After adsorption of viruses, the medium containing viruses was pipetted out, and 200 μl of cell culture medium containing different concentrations of the compound (4-fold dilution, 6 test concentrations) was added. […] After 10 days of culture, the fluorescence intensity was detected with a high content cell analysis platform Acumen eX3 (TTP LabTech). […]

HCMV (strain: GFP-AD169) = experiment: Human cytomegalovirus (HCMV) transplantation model in mice; assay type: in vivo; conditions: NOD SCID mice, 8 mg/kg orally once per day
Method: Human Cytomegalovirus (HCMV) Transplantation Model in Mice
Gelatin sponge containing HCMV was transplanted into mice. After 9 days of continuous administration, the gelatin sponge was collected for plaque detection. The anti-HCMV effect of the compound in this model was evaluated by detecting the amount of HCMV in the gelatin sponge.
The animals used in the assay were NOD SCID mice (purchased from Shanghai SLAC Laboratory Animal Co., Ltd.), 5 weeks old, and male. There were 5 animals in each group. The day on which the mice were subjected to gelatin sponge transplantation was set as day 0. Human foreskin fibroblasts (HFF, MOI=0.03) were infected with HCMV (strain: GFP-AD169) in advance, and then the HFF cells infected with HCMV were added to 1 cm^2 gelatin sponges and incubated for use. The animals were anesthetized by intraperitoneal injection of pentobarbital sodium at a dose of 75 mg/kg (10 ml/kg). After the animals entered the deep anesthesia state, the treated gelatin sponges were subcutaneously transplanted into the back of the mice. From day 1 to day 9, 8 mg/kg (10 ml/kg) of compound 1 was administered orally once per day. On the day 9, four hours after the administration, the gelatin sponges were taken out and digested, and then the plaques were detected.

COc1cc(N2CCN(C3=Nc4ccsc4[C@H](CC(=O)O)N3c3cc(C(F)(F)F)ccc3OC)C[C@H]2C)ccn1 (single isomer, unassigned) [Compound 1]
fraction unbound at 4 h, 2 μM [1]: 0.06
EC50 [2]: 0.2 nM
body weights of the mice (HCMV (strain: GFP-AD169); day 1 to day 9): stable
clinical observations (HCMV (strain: GFP-AD169); day 1 to day 9): no abnormality was found
decrease in HCMV viral load (HCMV (strain: GFP-AD169); gelatin sponge with HCMV-infected HFF, day 1 to day 9, plaque detection): 2.38 log PFU/ml
